For this data set the following is noted: Liquid, Closed cell (Static) method.

Here are results for three compounds from the NIST ThermoML archive (doi:10.1016/j.jct.2009.06.009).

As usually defined, the vapor or sublimation pressure is the pressure of vapour in equilibrium with the condensed phase.

“And” between values parts separate entries of the source, which are not always exact repeats. Equal entries are not always repeated. Numbers after ± are expanded uncertainties.

For the compound `CCCC` [butane], the “vapor or sublimation pressure” value was 148 ± 2 kPa (283.15 K), 208 ± 2 kPa (293.15 K), 282 ± 2 kPa (303.15 K) and 378 ± 2 kPa (313.15 K).
In the same order, the values of `CCC` [propane] are 638 ± 3 kPa, 840 ± 3 kPa, 1083 ± 3 kPa and 1375 ± 4 kPa.
With `FC(F)F` [trifluoromethane], the “vapor or sublimation pressure” value (283.15 K) is 3246 ± 9 kPa and 3242 ± 9 kPa; the “vapor or sublimation pressure” value (293.15 K) was 4158 ± 10 kPa and 4162 ± 10 kPa.
